According to US9650405B2, “Modified sophorolipids as oil solubilizing agents” (Polytechnic Institute of New York University, priority 2010, dated 2017):
Values belong to the compound of their own block, whether it stands above or below them.

How the values were obtained:
[1] = MSL combination lemon oil emulsions, high shear homogenizer; assay type: physicochemical; details: 5 weight % surfactant, 1 weight % lemon oil, one week at 25° C.
Experimental: In addition to testing single MSL emulsification through tracking nanoemulsion stability, MSL combinations were investigated. These emulsions were processed with a high shear homogenizer at 13,500 rpm. One example of this MSL combination formulation included 5 weight % surfactant, 1 weight % lemon oil, and 94% deionized water. The pure form of this formulation included 5 weight % SL-hexyl ester. The combination form of this formulation included 2.5 weight % SL-hexyl ester and 2.5 weight % SL-ethyl ester. […] The size of droplets within this emulsion was 2.5 μm. […] The size of droplets within the combination emulsion was 8.4 nm.

[2] = Lemon oil solubilization, sonication, droplet size by dynamic light scattering; assay type: physicochemical
Experimental: MSL's used in this example are SL-hexyl ester (16), SL-octyl ester SL (17), and SL-dodecyl ester (18). To test the MSL capacity for lemon oil solubilization, the volume ratio of water to lemon oil, the concentration of surfactant, and the homogenization time (using a sonicator as the means of homogenization) were varied. Concentration of surfactant is calculated on a w/w basis relative to the mass of water being used. To form emulsions, the MSL or other surfactant is first dissolved in the water, oil is added to the solution, and finally the contents of the water/surfactant+oil system is sonicated. Subsequently, the emulsion is allowed to settle for 24 hours at 25° C. before measurements or visual observations are made.
To evaluate the stability of lemon oil solubilization, photographs of emulsions were recorded daily (after the initial 24 hours). Visual observations consisted of assessing solution clarity, extent of creaming and whether oil separation occurs. After selected time periods measurement of emulsion droplet size was performed by dynamic light scattering, which gives an average droplet size in the solution. […] If the emulsion had creamed (separated into two discreet emulsion layers) the average droplet size for each emulsion layer was determined. The results of this study are listed in Table 6, where the first number represents average droplet size in the top emulsion layer and the second represents the average droplet size in the bottom emulsion layer. […] A better performing emulsifier for this study is defined as functioning to form emulsions with smaller average particle size after the aging period.

[3] = Crude oil emulsification activity (turbidity at 610 nm); details: emulsifier 1 mg/mL
Experimental: Emulsification activity was assessed using Louisiana Crude, Arabian Light Crude, and Prudhoe Bay Crude as the oil phase. A 2 mL solution with emulsifier concentration of 1 mg/mL was prepared. A crude oil (10 mg) was added to the emulsifier aqueous solution, the mixture was vortexed for one minute and the emulsified mixture was allowed to stand for 20 minutes. Emulsification activity was determined by measuring turbidity of the emulsion mixture in a spectrophotometer at 610 nm. The results obtained using SL-ethyl ester, SL-butyl ester, the natural sophorolipid mixture and Triton X-100 as emulsifiers are expressed as D610 and are listed in Table 8. […] Furthermore, a remarkable improvement in emulsification activity was obtained for SL-butyl ester relative to the natural sophorolipid mixture. These comparative results for emulsification of Louisiana Crude, Arabian Light Crude, and Prudhoe Bay Crude oil phase could not be anticipated by one skilled in the art.

[4] = Crude oil clearing/displacement activity; details: 20 μL of 1 mg/mL solution
Experimental: Oil cleaning assays were performed using Louisiana Crude, Arabian Light Crude, and Prudhoe Bay Crude as the oil phase. In one study, the oil clearing/displacement activity of MSLs were assessed using a crude oil layer on top of sea water in order to simulate oil spill type conditions. Sea water (20 mL) was transferred to plastic Petri dishes and 20 μL of a crude oil type was added on top of the water to create an oil layer. Subsequently, a 20 μL aliquot of MSL solution (1 mg/mL) was added dropwise to the top of the oil layer. The instantaneous formation of an oil clearing zone as well as the diameter of the clearing zone was determined as a function of the dispersant used. […] Furthermore, the oil displacement activity of SL-ethyl ester and SL-butyl ester was slightly higher than Triton-X-100 for Arabian Light crude.

[5] = lemon oil/water 1/99, sonication 120 sec, 0.5 wt %, 1 Month
[6] = lemon oil/water 5/95, sonication 60 sec, 0.25 weight-%, 1 Month
[7] = lemon oil/water 5/95, sonication 60 sec, 1 weight-%, 1 Month
[8] = lemon oil/water 5/95, sonication 60 sec, 1 weight-%, 1 Week
[9] = lemon oil/water 5/95, sonication 120 sec, 0.25 weight-%, 1 Month
[10] = lemon oil/water 5/95, sonication 120 sec, 0.5 weight-%, 1 Month
[11] = lemon oil/water 5/95, sonication 120 sec, 0.5 weight-%, 1 Week
[12] = lemon oil/water 5/95, sonication 120 sec, 1 weight-%, 1 Month
[13] = lemon oil/water 5/95, sonication 120 sec, 1 weight-%, 1 Week

size of droplets within the emulsion ([1]; 94% deionized water): 2.5 μm
appearance of the emulsion [1]: completely opaque
average droplet sizes after one month ([2]; lemon oil emulsions, after one month): below 1 μm
Emulsion Droplet Size ([2]; lemon oil/water 1/99, sonication 60 sec, 0.25 weight-%, 1 Month): 138 nm
Emulsion Droplet Size ([2]; lemon oil/water 1/99, sonication 60 sec, 0.25 weight-%, 1 Week): 200 nm
Emulsion Droplet Size ([2]; lemon oil/water 1/99, sonication 60 sec, 1 weight-%, 1 Month): 52 nm
Emulsion Droplet Size ([2]; lemon oil/water 1/99, sonication 60 sec, 1 weight-%, 1 Week): 22 nm
Emulsion Droplet Size ([2]; lemon oil/water 1/99, sonication 120 sec, 0.25 weight-%, 1 Month): 105 nm
Emulsion Droplet Size ([2]; lemon oil/water 1/99, sonication 120 sec, 0.25 weight-%, 1 week): 149 nm
Emulsion Droplet Size, bottom emulsion layer [2, 5]: 82 nm
Emulsion Droplet Size, top emulsion layer [2, 5]: 287 nm
Emulsion Droplet Size ([2]; lemon oil/water 1/99, sonication 120 sec, 0.5 wt %, 1 Week): 255 nm
Emulsion Droplet Size ([2]; lemon oil/water 1/99, sonication 120 sec, 1 weight-%, 1 Month): 26 nm
Emulsion Droplet Size ([2]; lemon oil/water 1/99, sonication 120 sec, 1 weight-%, 1 Week): 20 nm
Emulsion Droplet Size, bottom emulsion layer [2, 6]: 177 nm
Emulsion Droplet Size, top emulsion layer [2, 6]: 506 nm
Emulsion Droplet Size ([2]; lemon oil/water 5/95, sonication 60 sec, 0.25 weight-%, 1 week): 330 nm
Emulsion Droplet Size, bottom emulsion layer [2, 7]: 32 nm
Emulsion Droplet Size, top emulsion layer [2, 7]: 471 nm
Emulsion Droplet Size, bottom emulsion layer [2, 8]: 112 nm
Emulsion Droplet Size, top emulsion layer [2, 8]: 313 nm
Emulsion Droplet Size, bottom emulsion layer [2, 9]: 166 nm
Emulsion Droplet Size, top emulsion layer [2, 9]: 450 nm
Emulsion Droplet Size ([2]; lemon oil/water 5/95, sonication 120 sec, 0.25 weight-%, 1 week): 325 nm
Emulsion Droplet Size, bottom emulsion layer [2, 10]: 120 nm
Emulsion Droplet Size, top emulsion layer [2, 10]: 505 nm
Emulsion Droplet Size, bottom emulsion layer [2, 11]: 29 nm
Emulsion Droplet Size, top emulsion layer [2, 11]: 320 nm
Emulsion Droplet Size, bottom emulsion layer [2, 12]: 25 nm
Emulsion Droplet Size, top emulsion layer [2, 12]: 518 nm
Emulsion Droplet Size, bottom emulsion layer [2, 13]: 246 nm
Emulsion Droplet Size, top emulsion layer [2, 13]: 336 nm
Compound: CCCCCCOC(=O)CCCCCCCC=CCCCCCCC(C)OC1OC(CO)C(O)C(O)C1OC1OC(CO)C(O)C(O)C1O (centres unmarked) [Compound 16, SL-Hexyl Ester]

Oil displacement activity (diameter of the clearing zone) ([4]; Arabian Light Crude on sea water): 6.7 ± 0.14 cm
Oil displacement activity (diameter of the clearing zone) ([4]; Louisiana Crude on sea water): 8.7 ± 0.35 cm
Oil displacement activity (diameter of the clearing zone) ([4]; Prudhoe Bay Crude on sea water): 7.5 cm
Compound: CCCCOC(=O)CCCCCCCC=CCCCCCCC(C)OC1OC(CO)C(O)C(O)C1OC1OC(CO)C(O)C(O)C1O (centres unmarked) [Compound 8, SL-Butyl Ester]
Emulsification activity (D610) ([3]; Arabian Crude): 1.77
Emulsification activity (D610) ([3]; Louisiana Crude): 1.50
Emulsification activity (D610) ([3]; Prudhoe Crude): 1.58
